Reference: patent US9221822B2, “Thiazolopyrimidine modulators as immunosuppressive agents” (Katholieke Universiteit Leuven, K.U.Leuven R&D, priority 2009, dated 2015)

tested on: Human peripheral blood mononuclear cells (PBMCs) as Responder cells, RPMI 1788 Stimulator cells; assay: Mixed Lymphocyte Reaction (MLR) test; format: cell-based; conditions: Homo sapiens, RPMI-1788, lowest concentration giving 50% inhibition of the MLR; 6 days coculture, 3H-thymidine incorporation
Method: Human peripheral blood mononuclear cells (PBMCs) were isolated from buffy coats, obtained from healthy blood donors by Ficoll (Lymphoprep, Axis-Shield PoC AS, Oslo, Norway) density-gradient centrifugation. The cells at the Ficoll-plasma interface were washed three times and used as “Responder” cells. RPMI 1788 (ATCC, N^o CCL-156) cells were treated with mitomycin C (Kyowa, Nycomed, Brussel, Belgium) and used as “Stimulator” cells. Responder cells (0.12×10^6), Stimulator cells (0.045×10^6) and compounds (in different concentrations) were cocultured for 6 days in RPMI 1640 medium (BioWhittaker, Lonza, Belgium) supplemented with 10% fetal calf serum, 100 U/ml Geneticin (Gibco, LifeTechnologies, UK). Cells were cultured in triplicate in flat-bottomed 96-well microtiter tissue culture plates (TTP, Switzerland). After 5 days, cells were pulsed with 1 μCi of methyl-^3H thymidine (MP Biomedicals, USA), harvested 18 h later on glass filter paper and counted. Proliferation values were expressed as counts per minute (cpm), and converted to % inhibition with respect to a blank MLR test (identical but without added compound). […]

Q: Which IC50 does the source give for Nc1nc(N2CCN(C(=O)Nc3ccc(Cl)cc3)CC2)c2nc(-c3cccnc3)sc2n1 [Example 277, 4-(5-amino-2-(pyridin-3-yl)thiazolo[5,4-d]pyrimidin-7-yl)-N-(4-chlorophenyl)piperazine-1-carboxamide] here?
A: 24 nM

Q: For Nc1nc(N2CCN(C(=O)COc3ccc(Br)cc3)CC2)c2nc(-c3ccc(F)cc3)sc2n1 [Example 235, 1-(4-(5-amino-2-(4-fluorophenyl)thiazolo[5,4-d]pyrimidin-7-yl)piperazin-1-yl)-2-(4-bromophenoxy)ethanone], which IC50 is on record?
A: 460 nM

Q: How did the IC50 turn out when COc1ccc(OCC(=O)N2CCN(c3nc(N)nc4sc(-c5ccc(F)cc5)nc34)CC2)cc1 [Example 234, 1-(4-(5-amino-2-(4-fluorophenyl)thiazolo[5,4-d]pyrimidin-7-yl)piperazin-1-yl)-2-(4-methoxyphenoxy)ethanone] was run?
A: 37 nM

Q: Nc1nc(N2CCN(C(=O)c3ccc(Cl)cc3)CC2)c2nc(CCc3ccc(F)cc3)sc2n1 [Example 135, 5-amino-2-[2-(4-fluorophenyl)ethyl]-7-[4-(4-chlorobenzoyl)piperazin-1-yl]-thiazolo[5,4-d]pyrimidine] was tested. Which IC50 did it give?
A: > 10000 nM

Q: With COc1ccc(OCC(=O)N2CCN(c3nc(N)nc4sc(-c5ccc(C)cc5)nc34)CC2)cc1 [Example 294, 1-(4-(5-amino-2-p-tolylthiazolo[5,4-d]pyrimidin-7-yl)piperazin-1-yl)-2-(4-methoxyphenoxy)ethanone] as the compound, how does the IC50 read?
A: 750 nM

Q: How did the IC50 turn out when CCOC(=O)c1nc(N2CCN(C(=O)COc3ccc(Cl)cc3)CC2)c2cc(-c3ccc(F)cc3)sc2n1 [Example 353, ethyl 4-(4-(2-(4-chlorophenoxy)acetyl)piperazin-1-yl)-6-(4-fluorophenyl)thieno[2,3-d]pyrimidine-2-carboxylate] was run?
A: > 10000 nM

Q: Nc1nc(N2CCN(C(=O)COc3ccc(O)cc3)CC2)c2nc(CCc3ccc(F)cc3)sc2n1 [Example 224, 1-(4-(5-amino-2-(4-fluorophenethyl)thiazolo[5,4-d]pyrimidin-7-yl)piperazin-1-yl)-2-(4-hydroxyphenoxy)ethanone] was tested. Which IC50 did it give?
A: 1100 nM

Q: Nc1nc(N2CCN(C(=O)COc3ccc(OC(F)(F)F)cc3)CC2)c2nc(CCc3ccc(F)cc3)sc2n1 [Example 226, 1-(4-(5-amino-2-(4-fluorophenethyl)thiazolo[5,4-d]pyrimidin-7-yl)piperazin-1-yl)-2-(4-(trifluoromethoxy)phenoxy)ethanone] was tested. Which IC50 did it give?
A: 7120 nM

Q: How did the IC50 turn out when Nc1nc(N2CCC(C(=O)c3ccccc3)CC2)c2nc(CCc3ccc(F)cc3)sc2n1 [Example 148, 5-amino-2-[2-(4-fluorophenyl)ethyl]-7-(4-benzoylpiperidine-1-yl)-thiazolo[5,4-d]pyrimidine] was run?
A: 2610 nM

Q: Which IC50 does the source give for Cc1cccc(NC(=O)N2CCN(c3nc(N)nc4sc(CCc5cccs5)nc34)CC2)c1 [Example 157, 5-amino-2-(2-thiophen-2-ylethyl)-7-(4-m-tolylcarbamoylpiperazin-1-yl)thiazolo[5,4-d]pyrimidine] here?
A: 630 nM

Q: How did the IC50 turn out when Nc1nc(N2CCN(C(=O)COc3ccc(Cl)cc3)CC2)c2nc(-c3ccc(Cl)cc3)[nH]c2n1 [Example 392, 1-(4-(2-amino-8-(4-chlorophenyl)-9H-purin-6-yl)piperazin-1-yl)-2-(4-chlorophenoxy)ethanone] was run?
A: 540 nM

Q: Nc1nc(N2CCN(C(=O)COc3ccccc3)CC2)c2cc(-c3ccccc3)sc2n1 [Example 332, 1-(4-(2-amino-6-phenylthieno[2,3-d]pyrimidin-4-yl)piperazin-1-yl)-2-phenoxyethanone] was tested. Which IC50 did it give?
A: 780 nM

Q: For CCC(c1ccc(F)cc1)c1nc2c(N3CCN(C(=O)COc4ccc(Cl)cc4)CC3)nc(N)nc2s1 (stereo not drawn) [Example 150, 5-amino-2-[1-(4-fluorophenyl)propyl]-7-(4-[2-(4-chlorophenoxy)acetyl]piperazin-1-yl)thiazolo[5,4-d]pyrimidine], which IC50 is on record?
A: 5390 nM

Q: Which IC50 does the source give for Nc1nc(N2CCN(CC(=O)Nc3cccnc3)CC2)c2nc(-c3ccc(F)cc3)[nH]c2n1 [Example 412, 2-(4-(2-amino-8-(4-fluorophenyl)-9H-purin-6-yl)piperazin-1-yl)-N-(pyridin-3-yl)acetamide] here?
A: 8610 nM

Q: Which IC50 does the source give for Nc1nc(N2CCN(C(=O)CCc3ccc(F)cc3)CC2)c2nc(-c3ccc(F)cc3)sc2n1 [Example 236, 1-(4-(5-amino-2-(4-fluorophenyl)thiazolo[5,4-d]pyrimidin-7-yl)piperazin-1-yl)-3-(4-fluorophenyl)propan-1-one] here?
A: 890 nM

Q: With Nc1nc(N2CCN(C(=O)COc3ccc(Cl)cc3)CC2)c2nc(Cc3ccc(Cl)cc3)sc2n1 [Example 122, 5-amino-7-[4-(4-chlorophenoxyacetyl)piperazin-1-yl]-2-(4-chlorophenylmethyl)thiazolo[5,4-d]pyrimidine] as the compound, how does the IC50 read?
A: > 10000 nM

Q: How did the IC50 turn out when Nc1nc(N2CCN(C(=O)Cc3ccc(Cl)cc3)CC2)c2nc(CCc3ccc(F)cc3)sc2n1 [Example 132, 5-amino-2-[2-(4-fluorophenyl)ethyl]-7-(4-[2-(4-chlorophenyl)acetyl]piperazin-1-yl)-thiazolo[5,4-d]pyrimidine] was run?
A: 440 nM

Q: Which IC50 does the source give for Nc1nc(N2CCN(c3nccs3)CC2)c2nc(-c3ccc(F)cc3)sc2n1 [Example 36, 2-(4-fluorophenyl)-7-(4-(thiazol-2-yl)piperazin-1-yl)thiazolo[5,4-d]pyrimidin-5-amine] here?
A: > 10000 nM

Q: With Nc1nc(N2CCN(C(=O)COc3ccc(F)cc3)CC2)c2nc(-c3ccco3)sc2n1 [Example 209, 1-(4-(5-amino-2-(furan-2-yl)thiazolo[5,4-d]pyrimidin-7-yl)piperazin-1-yl)-2-(4-fluorophenoxy)ethanone] as the compound, how does the IC50 read?
A: 55 nM

Q: How did the IC50 turn out when Nc1nc(N2CCN(C(=O)COc3ccc(Cl)cc3Cl)CC2)c2nc(-c3ccc(F)cc3)sc2n1 [Example 212, 1-(4-(5-amino-2-(4-fluorophenyl)thiazolo[5,4-d]pyrimidin-7-yl)piperazin-1-yl)-2-(2,4-dichlorophenoxy)ethanone] was run?
A: 375 nM

Q: Which IC50 does the source give for COc1ccc(OCC(=O)N2CCN(c3ncnc4sc(-c5ccc(F)cc5)nc34)CC2)cc1 [Example 300, 1-(4-(2-(4-fluorophenyl)thiazolo[5,4-d]pyrimidin-7-yl)piperazin-1-yl)-2-(4-methoxyphenoxy)ethanone] here?
A: 5530 nM

Q: With Nc1nc(N2CCN(C(=O)COc3cccc([N+](=O)[O-])c3)CC2)c2nc(CCc3ccc(F)cc3)sc2n1 [Example 131, 5-amino-2-[2-(4-fluorophenyl)ethyl]-7-(4-[2-(3-nitrophenoxy)acetyl]piperazin-1-yl)-thiazolo[5,4-d]pyrimidine] as the compound, how does the IC50 read?
A: 3250 nM

Q: With Cn1c(-c2ccc(F)cc2)nc2c(N3CCN(C(=O)COc4ccc(Cl)cc4)CC3)nc(N)nc21 [Example 430, 1-(4-(2-amino-8-(4-fluorophenyl)-9-methyl-9H-purin-6-yl)piperazin-1-yl)-2-(4-chlorophenoxy)ethanone] as the compound, how does the IC50 read?
A: 360 nM

Q: How did the IC50 turn out when CSc1nc2c(N3CCN(C(=O)COc4ccc(Cl)cc4)CC3)nc(N)nc2n1C [Example 428, 1-(4-(2-amino-9-methyl-8-(methylthio)-9H-purin-6-yl)piperazin-1-yl)-2-(4-chlorophenoxy)ethanone] was run?
A: 300 nM

Q: How did the IC50 turn out when Nc1nc(SCc2ccccc2)c2nc(-c3ccc(F)cc3)sc2n1 [Example 28, 7-(benzylthio)-2-(4-fluorophenyl)thiazolo[5,4-d]pyrimidin-5-amine] was run?
A: > 10000 nM

Q: Cc1ccc(-c2nc3c(N4CCN(C(=O)COc5ccc(Cl)cc5)CC4)nc(N)nc3[nH]2)cc1 [Example 396, 1-(4-(2-amino-8-p-tolyl-9H-purin-6-yl)piperazin-1-yl)-2-(4-chlorophenoxy)ethanone] was tested. Which IC50 did it give?
A: 470 nM

Q: How did the IC50 turn out when Nc1nc(N2CCN(S(=O)(=O)Cc3ccccc3)CC2)c2nc(CCc3ccc(F)cc3)sc2n1 [Example 137, 5-amino-2-[2-(4-fluorophenyl)ethyl]-7-[4-phenylmethanesulfonylpiperazin-1-yl]-thiazolo[5,4-d]pyrimidine] was run?
A: 6680 nM

Q: With COc1ccc(OCC(=O)N2CCN(c3nc(N)nc4sc(-c5cccnc5)nc34)CC2)cc1 [Example 271, 1-(4-(5-amino-2-(pyridin-3-yl)thiazolo[5,4-d]pyrimidin-7-yl)piperazin-1-yl)-2-(4-methoxyphenoxy)ethanone] as the compound, how does the IC50 read?
A: 12 nM

Q: Nc1nc(N2CCN(C(=O)COc3ccccc3)CC2)c2nc(-c3ccc(F)cc3)sc2n1 [Example 130, 5-amino-2-(4-fluorophenyl)-7-(4-(2-phenoxyacetyl)-piperazin-1-yl)-thiazolo[5,4-d]pyrimidine] was tested. Which IC50 did it give?
A: 350 nM

Q: With Nc1nc(N2CCN(C(=O)COc3ccc(Br)cc3)CC2)c2cc(-c3ccccc3)sc2n1 [Example 372, 1-(4-(2-amino-6-phenylthieno[2,3-d]pyrimidin-4-yl)piperazin-1-yl)-2-(4-bromophenoxy)ethanone] as the compound, how does the IC50 read?
A: 320 nM

Q: Nc1nc(N2CCN(C(=O)COc3ccc(F)cc3)CC2)c2nc(-c3ccc(F)cc3)sc2n1 [Example 233, 1-(4-(5-amino-2-(4-fluorophenyl)thiazolo[5,4-d]pyrimidin-7-yl)piperazin-1-yl)-2-(4-fluorophenoxy)ethanone] was tested. Which IC50 did it give?
A: 74 nM

Q: How did the IC50 turn out when CCCCCc1nc2c(N3CCN(C(=O)COc4ccc(Cl)cc4)CC3)nc(N)nc2o1 [Example 188, 5-amino-7-[4-(4-chlorophenoxyacetyl)piperazin-1-yl]-2-pentyloxazolo[5,4-d]pyrimidine] was run?
A: 4430 nM

Q: Nc1nc(N2CCN(C(=O)c3ccc(Cl)cc3)CC2)c2nc(CCc3ccc(F)cc3)oc2n1 [Example 195, 5-amino-2-[2-(4-fluorophenyl)ethyl]-7-(4-[4-chlorobenzoyl]piperazin-1-yl)-oxazolo[5,4-d]pyrimidine] was tested. Which IC50 did it give?
A: > 10000 nM
